Values after ≈ are worked out from the molar mass of the structure shown. Peptide text beside a SMILES is read from it.
Each compound was assayed on M. furfur ATCC 14521 (assay: not given). Details: 5 μM peptide, after 15 min of treatment, 30° C., 10^6 cells/ml, CFU vs no-peptide control.
Method: FIG. 1. Killing kinetics of PF-S028 L and D versions against M. furfur were determined using standard time-kill methods previously detailed (Eckert et al. (2006) Antimicrob Agents Chemother., 50: 1480-1488). Briefly, a log phase culture of M. furfur ATCC 14521 was diluted to 10^6 cells/ml in ATCC medium 1072. To the reaction tubes 5 μM of either PF-S028 L or PF-S028 D were added. A reaction tube to which 4 μl of 50% methanol served as the negative control. Reaction tubes were stored at 30° C. and at indicated intervals an aliquot was removed from the reaction tube and placed in a recovery tube where peptide was removed by dilution. An aliquot from the recovery tube was plated on ATCC medium 1072 agar plates and incubated at 30° C. until visible colonies formed. Colony forming units were calculated for the negative control (no peptide), PF-S028 L, and PF-S028 D treated cultures.
In some cases killing kinetic experiments were then conducted. Killing kinetics of PF-S028 L and D versions against M. furfur were determined as described in Eckert et al. (2006) Antimicrob Agents Chemother., 50: 1480-1488. Briefly, a log phase culture of M. furfur ATCC 14521 was diluted to 10^6 cells/ml in ATCC medium 1072. To the reaction tubes 5 μM of either PF-S028 L or PF-S028 D were added. […] Colony forming units were calculated for the negative control (no peptide), PF-S028 L, and PF-S028 D treated cultures.
With `CC[C@@H](C)[C@@H](NC(=O)[C@H](NC(=O)[C@@H](CO)NC(=O)CN)C(C)C)C(=O)N[C@H](CCCCN)C(=O)N[C@H](CCCCN)C(=O)N[C@H](CCCNC(=N)N)C(=O)N[C@H](CCCNC(=N)N)C(=O)N[C@H](CCCCN)C(=O)N[C@H](CCCNC(=N)N)C(=O)N[C@H](CCSC)C(=O)N[C@H](CO)C(=O)N[C@H](CCCCN)C(=O)N[C@H](CCCCN)C(=O)N[C@H](CCCCN)C(=O)N[C@H](Cc1c[nH]cn1)C(=O)N[C@H](CCCNC(=N)N)C(=O)N[C@H](CCCCN)C(=O)N[C@H](CCSC)C(=O)N[C@H](CC(C)C)C(=O)N[C@H](CCCNC(=N)N)C(=O)N[C@H](CCCNC(=N)N)C(=O)N[C@@H](C(=O)N[C@H](CCCNC(=N)N)C(=O)N[C@@H](C(=O)N[C@H](CCC(N)=O)C(=O)N[C@H](CCCNC(=N)N)C(=O)N[C@H](CCCNC(=N)N)C(=O)N[C@H](CCCCN)C(=O)N[C@H](CC(C)C)C(=O)NCC(=O)N[C@H](CCCCN)C(=O)O)C(C)C)[C@H](C)O` [PF-S028 D] the M. furfur killed was “over 99%”.
In the case of `CC[C@H](C)[C@H](NC(=O)[C@@H](NC(=O)[C@H](CO)NC(=O)CN)C(C)C)C(=O)N[C@@H](CCCCN)C(=O)N[C@@H](CCCCN)C(=O)N[C@@H](CCCNC(=N)N)C(=O)N[C@@H](CCCNC(=N)N)C(=O)N[C@@H](CCCCN)C(=O)N[C@@H](CCCNC(=N)N)C(=O)N[C@@H](CCSC)C(=O)N[C@@H](CO)C(=O)N[C@@H](CCCCN)C(=O)N[C@@H](CCCCN)C(=O)N[C@@H](CCCCN)C(=O)N[C@@H](Cc1c[nH]cn1)C(=O)N[C@@H](CCCNC(=N)N)C(=O)N[C@@H](CCCCN)C(=O)N[C@@H](CCSC)C(=O)N[C@@H](CC(C)C)C(=O)N[C@@H](CCCNC(=N)N)C(=O)N[C@@H](CCCNC(=N)N)C(=O)N[C@H](C(=O)N[C@@H](CCCNC(=N)N)C(=O)N[C@H](C(=O)N[C@@H](CCC(N)=O)C(=O)N[C@@H](CCCNC(=N)N)C(=O)N[C@@H](CCCNC(=N)N)C(=O)N[C@@H](CCCCN)C(=O)N[C@@H](CC(C)C)C(=O)NCC(=O)N[C@@H](CCCCN)C(=O)O)C(C)C)[C@@H](C)O` [PF-S028 L], the M. furfur killed is reported as 39%.

These compounds were tested on T. rubrum (assay: not given). Details: not given.
Assay type: cell-based, Trichophyton rubrum
Method: (§1) In certain embodiments the MIC assays are performed as described herein in the Examples. For each organism, the media and growth conditions utilized is detailed in Table 8.
(§2) In certain embodiments the MIC assays are performed as follows: For each organism, the media and growth conditions utilized is detailed in Table 8.
`CC(C)[C@H](NC(=O)[C@H](CCCCN)NC(=O)[C@H](Cc1c[nH]c2ccccc12)NC(=O)CNC(=O)[C@@H](NC(=O)[C@H](CC(=O)O)NC(=O)[C@H](CO)NC(=O)[C@H](Cc1c[nH]cn1)NC(=O)CNC(=O)[C@@H]1CCCN1C(=O)[C@@H](NC(=O)[C@H](CCCNC(=N)N)NC(=O)[C@H](CO)NC(=O)[C@@H](N)Cc1c[nH]c2ccccc12)C(C)C)[C@@H](C)O)C(=O)N[C@@H](Cc1c[nH]c2ccccc12)C(=O)N[C@@H](Cc1c[nH]cn1)C(=O)N[C@@H](CCCNC(=N)N)C(=O)N[C@@H](Cc1c[nH]c2ccccc12)C(=O)O` [PF-547] (H-WSRVPGHSDTGWKVWHRW-OH; N-terminus and C-terminus assumed) showed an MIC of 25 µM (≈ 56.9 µg/mL).

What follows are compounds tested on Candida albicans (assay: Peptide binding to Candida albicans). Details: tested at 3.13, 6.25, 12.5 and 25.0 μM in 1× PBS or 20 mM HEPES, 150 mM NaCl, 1 mM MgCl2, 0.1% CTAB.
Method: The peptides in Table 6 were tested for binding efficiency at 3.13, 6.25, 12.5 and 25.0 μM concentrations in 1× phosphate-buffered saline or 20 mM HEPES (4-(2-hydroxyethyl)-1-piperazineethanesulfonic acid), 150 mM sodium chloride, 1 mM magnesium chloride and 0.1% CTAB.
In the case of `CC[C@H](C)[C@H](NC(=O)[C@H](C)NC(=O)[C@@H]1CCCN1C(=O)[C@H](Cc1ccccc1)NC(=O)[C@@H]1CCCN1C(=O)[C@H](CC(C)C)NC(=O)[C@@H](N)C(C)C)C(=O)N1CCC[C@H]1C(=O)N[C@@H](CC(C)C)C(=O)N[C@@H](CO)C(=O)N[C@@H](CCCNC(=N)N)C(=O)N[C@@H](CCCNC(=N)N)C(=O)N[C@@H](CCCNC(=N)N)C(=O)N[C@@H](C)C(=O)N[C@@H](CS)C(=O)N[C@H](C(=O)N[C@@H](C)C(=O)N[C@@H](C)C(=O)N1CCC[C@H]1C(=O)N[C@@H](CCCNC(=N)N)C(=O)N1CCC[C@H]1C(=O)N[C@@H](CCCNC(=N)N)C(=O)N[C@@H](CO)C(=O)N[C@@H](CCCNC(=N)N)C(=O)N[C@@H](CCC(N)=O)C(=O)N[C@@H](CCCNC(=N)N)C(=O)N[C@@H](C)C(=O)N[C@@H](CO)C(=O)O)C(C)C` [PF-168] (H-VLPFPAIPLSRRRACVAAPRPRSRQRAS-OH; N-terminus and C-terminus assumed), the “Target(s): form of Candida albicans bound” value is reported as “yeast cells”.
With `CC[C@H](C)[C@H](NC(=O)[C@H](CC(N)=O)NC(=O)[C@@H](NC(=O)[C@H](Cc1ccccc1)NC(=O)[C@H](CCC(=O)O)NC(=O)CNC(=O)[C@H](CCC(N)=O)NC(=O)[C@H](Cc1ccccc1)NC(=O)[C@@H](N)CCCCN)[C@@H](C)O)C(=O)NCC(=O)N[C@@H](CCC(N)=O)C(=O)N[C@@H](CO)C(=O)N[C@@H](Cc1ccc(O)cc1)C(=O)N[C@H](C(=O)N[C@H](C(=O)N[C@@H](CO)C(=O)N[C@@H](C)C(=O)N[C@@H](CO)C(=O)N[C@@H](Cc1c[nH]cn1)C(=O)N[C@@H](CCSC)C(=O)N[C@@H](CO)C(=O)N[C@H](C(=O)N[C@@H](CO)C(=O)N[C@@H](CC(C)C)C(=O)N[C@@H](CC(N)=O)C(=O)N[C@H](C(=O)NCC(=O)N[C@@H](CCCCN)C(=O)O)[C@@H](C)O)[C@@H](C)O)C(C)C)[C@@H](C)CC` [PF-583] (H-KFQGEFTNIGQSYIVSASHMSTSLNTGK-OH; N-terminus and C-terminus assumed) the “Target(s): form of Candida albicans bound” value was “hyphae”.
In the case of “AIEGVIKKGACFKLLRHEMF (Antimicrobial peptide and/or targeting peptide) [PF-167]”, the “Target(s): form of Candida albicans bound” value is reported as “yeast cells”.
For “DLRKAK (Antimicrobial peptide and/or targeting peptide) [PF-024]”, the “Target(s): form of Candida albicans bound” value was “hyphae”.
In the case of “EILNNNQVIKELTMKYKTQFESNLGGWTARARR (Antimicrobial peptide and/or targeting peptide) [PF-580]”, the “Target(s): form of Candida albicans bound” value is reported as “hyphae”.
With “EVYSSPTNNVAITVQNN (Antimicrobial peptide and/or targeting peptide) [PF-178]” the “Target(s): form of Candida albicans bound” value was “hyphae”.
“GGTKEIVYQRG (Antimicrobial peptide and/or targeting peptide) [1T-68]” was tested, and the “Target(s): form of Candida albicans bound” value was “yeast cells”.
For “GVGIGFIMMGVVGYAVKLVHIPIRYLIV (Antimicrobial peptide and/or targeting peptide) [PF-770]”, the “Target(s): form of Candida albicans bound” value was “hyphae”.
With “HARAAVGVAELPRGAAVEVELIAAVRP (Antimicrobial peptide and/or targeting peptide) [1T-65]” the “Target(s): form of Candida albicans bound” value was “hyphae”.
“HSSHL (Antimicrobial peptide and/or targeting peptide) [PF-060]” was tested, and the “Target(s): form of Candida albicans bound” value was “hyphae”.
For “KLRSASKKSLQEKSCGIMPEKPAG (Antimicrobial peptide and/or targeting peptide) [PF-206]”, the “Target(s): form of Candida albicans bound” value was “hyphae”.
For “LVRLA (Antimicrobial peptide and/or targeting peptide) [PF-636]”, the “Target(s): form of Candida albicans bound” value was “hyphae”.
For “MIHLTKQNTMEALHFIKQFYDMFFILNFNV (Antimicrobial peptide and/or targeting peptide) [PF-040]”, the “Target(s): form of Candida albicans bound” value was “hyphae”.
For “MPKARPVNHNKKKSKITIKSNFTLFYMFNP (Antimicrobial peptide and/or targeting peptide) [PF-634]”, the “Target(s): form of Candida albicans bound” value was “hyphae”.
With “NILFGIIGFVVAMTAAVIVTAISIAK (Antimicrobial peptide and/or targeting peptide) [PF-543]” the “Target(s): form of Candida albicans bound” value was “hyphae”.
With “NRQAQGERAHGEQQG (Antimicrobial peptide and/or targeting peptide) [1T-70]” the “Target(s): form of Candida albicans bound” value was “yeast cells”.
For “RFFNFEIKKSTKVDYVFAHVDLSDV (Antimicrobial peptide and/or targeting peptide) [PF-051]”, the “Target(s): form of Candida albicans bound” value was “hyphae”.
With “RLARGRPTNLCGRRG (Antimicrobial peptide and/or targeting peptide) [PF-170]” the “Target(s): form of Candida albicans bound” value was “yeast cells”.
“RLTSNQFLTRITPFVFAQH (Antimicrobial peptide and/or targeting peptide) [PF-176]” was tested, and the “Target(s): form of Candida albicans bound” value was “yeast cells”.
“SKFELVNYASGCSCGADCKCASETECKCASKK (Antimicrobial peptide and/or targeting peptide) [PF-761]” was tested, and the “Target(s): form of Candida albicans bound” value was “hyphae”.
With “VVRRFQGM (Antimicrobial peptide and/or targeting peptide) [PF-141]” the “Target(s): form of Candida albicans bound” value was “hyphae”.
For “VYRHLRFIDGKLVEIRLERK (Antimicrobial peptide and/or targeting peptide) [1T-36]”, the “Target(s): form of Candida albicans bound” value was “hyphae”.

These compounds were tested on B. subtilis (assay: not given). Details: not given.
Assay type: cell-based, Bacillus subtilis
Method: as §1, §2
Compound `CC(C)[C@H](NC(=O)[C@H](CCCCN)NC(=O)[C@H](Cc1c[nH]c2ccccc12)NC(=O)CNC(=O)[C@@H](NC(=O)[C@H](CC(=O)O)NC(=O)[C@H](CO)NC(=O)[C@H](Cc1c[nH]cn1)NC(=O)CNC(=O)[C@@H]1CCCN1C(=O)[C@@H](NC(=O)[C@H](CCCNC(=N)N)NC(=O)[C@H](CO)NC(=O)[C@@H](N)Cc1c[nH]c2ccccc12)C(C)C)[C@@H](C)O)C(=O)N[C@@H](Cc1c[nH]c2ccccc12)C(=O)N[C@@H](Cc1c[nH]cn1)C(=O)N[C@@H](CCCNC(=N)N)C(=O)N[C@@H](Cc1c[nH]c2ccccc12)C(=O)O` [PF-547] (H-WSRVPGHSDTGWKVWHRW-OH; N-terminus and C-terminus assumed) has an MIC of 25 µM (≈ 56.9 µg/mL).

From US8303962B2, “Antibacterial and antifungal peptides” (C3 Jian, Inc., priority 2009, dated 2012)
